Data published in patent publication US20250326714A1, “PURE FORMS OF CRYSTALLINE ATICAPRANT” (Janssen Pharmaceuticals, Inc., priority 2022, published 2025).

Key:
[1] = Body weight by treatment group, Example 5 study; type: in vivo, human
Description: Treatment with the chemically and/or enantiomerically pure aticaprant described herein, e.g., chemically and/or enantiomerically pure crystalline Form III of aticaprant, or compositions containing the same as described herein has several advantages over the treatments in the art. […] As used herein, the term “weight gain” refers to an increase in the weight of patient, relative to the weight of the patient before taking the chemically and/or enantiomerically pure aticaprant described herein, e.g., chemically and/or enantiomerically pure crystalline Form III of aticaprant, or compositions containing the same or the weight of the patient that is assessed at the time of the initial administration of the chemically and/or enantiomerically pure aticaprant described herein, e.g., chemically and/or enantiomerically pure crystalline Form III of aticaprant, or compositions containing the same. In certain embodiments, the patient may actually see a decrease in overall weight, relative to the weight of the patient before taking the chemically and/or enantiomerically pure aticaprant described herein, e.g., chemically and/or enantiomerically pure crystalline Form III of aticaprant, or compositions containing the same.
At the lead-in baseline timepoint, the mean weight for subjects in the placebo group was 76.17 kg compared to 78.66 in the aticaprant group. After 6 weeks in the double-blind treatment phase, the mean weight in the placebo group was 75.75 kg compared to 78.57 kg in the aticaprant group. […] This is unexpected because other adjunctive treatments for MDD result in a mean weight increase. See, Thase M, et al. J Clin Psych. 2015: 76 (9), 1224-1231; Thase, J Clin Psych. 2015, 76 (9): 1232-1240; El Khalili, Int J Neuropsychopharmacol. 2010, 13, 917-932; Marcus, J. Clin. Psychopharmacol. […] Nashville, Tenn, ACNP, 2008; Earley, American College of Neuropsychopharmacology, 2007, Annual Meeting Abstracts (Boca Raton, Fla, Dec. 9-13, 2007). Nashville, TN, ACNP, 2007). See, Table 48.

[2] = Solid-state characterization of Form III (GVS, TGA); type: physicochemical
[3] = ICH M7 class of impurity (DNA reactive / mutagenic impurities)

For `Cc1cc(C)cc(C2CCCN2Cc2ccc(Oc3ccc(C(N)=O)cc3F)cc2)c1` (stereo not drawn) [aticaprant, 3-fluoro-4-4-2-(3,5-dimethylphenyl) pyrrolidin-1-yl-methylphenoxybenzamide], the “weight over the 6-week double blind treatment period” value ([1]; both groups) was “remained relatively stable”, the “Mean weight, Absolute Change (Withdrawal − Lead-in)” value ([1]; n = 85) was -0.09 kg and the “Mean weight, Lead-in Baseline, mean (SE)” value ([1]; n = 85) was 78.66 (1.65) kg. The “Mean weight, Relative % Change” value ([1]; n = 85) was −0.11%, the “Mean weight, Screening, mean (SE)” value ([1]; n = 85) was 78.42 (1.65) kg and the “Mean weight, Withdrawal Baseline, mean (SE)” value ([1]; n = 85, after 6 weeks double-blind treatment) was 78.57 (1.71) kg.
In the case of `Cc1cc(C)cc([C@@H]2CCCN2Cc2ccc(Oc3ccc(C(N)=O)cc3F)cc2)c1` [Form III], the TGA degradation onset [2] was “Degradation onset ~250 °C” and the “XRPD after GVS” value [2] was “XRPD unchanged after GVS”.
In the case of `Cc1cc(C)cc([C@@H]2CCCN2Cc2ccc(Oc3ccc(CN4CCC[C@H]4c4cc(C)cc(C)c4)cc3)cc2)c1` [Impurity 1], the “Impurity Class (ICH M7 Guideline)” value [3] was “Class 5”.
